# Data: paper PMC5847527, “Identification of a novel 2-oxindole fluorinated derivative as in vivo antitumor agent for prostate cancer acting via AMPK activation” (Scientific Reports, 2018)
# Legend:
# Format in all cases: cell-based, human
# AMPK = AMPK and ACC phosphorylation by Western blot in LNCaP cells; settings: 25 µM, 1 hour
# Protocol: Figure 2 Effect of 2-oxindole fluorinated derivatives on AMPK activity in prostate cancer cells. (A) PC-3, DU145 and LNCaP cells were treated with 25 µM of the selected 2-oxindole fluorinated derivatives for 1 hour. Levels of the phosphorylated AMPK (pAMPK), phosphorylated ACC (pACC) and their total forms were determined by Western blot. Upper panel, a representative Western blot of three different experiments. β-tubulin (β-Tub) serves as a loading control. […] Lower panels, densitometric analyses of bands represented as the mean of the ratio pAMPK/AMPK or pACC/ACC ± SD of three different experiments. *p < 0.05 compared with the controls by one-way ANOVA followed by Fisher’s LSD test; ^#p < 0.05 compared with 2-oxindole fluorinated derivates or with the AMPK activators AMP or A769662 by one-way ANOVA followed by Tukey test.
# Similar results were obtained although AMPK stimulation by compound 8c was not so strong (Fig. 2A). […]
# Cells were lysed in Lysis buffer (50 mM Tris pH 7.4, 0.8 M NaCl, 5 mM MgCl2, 0.1% Triton X-100) containing Protease Inhibitor and Phosphatase inhibitor Cocktails (Roche, Basel, Switzerland). Protein concentrations were measured by BioRad™ protein assay kit (Richmond, CA, USA). […] Films were analyzed by densitometry. […]
# PC-3 cells = test: Cell viability by MTT assay, PC-3
# Protocol: Figure 3 Comparison of the effect of 2-oxindole fluorinated derivatives on the proliferation of human prostate cancer cells. (A) Normal (PTN2 and RWPE-1) and cancer (PC3,DU145 and LNCaP) prostate cells were treated with different doses of the compounds for 24 hours and cell viability was monitored by MTT assay. […] (C) PC-3, DU145 and LNCaP cells were treated with 25 µM of compound 8c for different times. Values were normalized with the control and represent the mean ± SD of at least three independent experiments. *p < 0.05 and **p < 0.01 compared to control by the Student’s - test.
# Human prostate cancer epithelial PC-3, DU145 and LNCaP and human prostate normal RWPE-1 cells were purchased from American Type Culture Collection (ATCC CRL-1435 CRL-1740 and CRL 11609 respectively) (Rockville, MD, USA). The human prostate normal PNT2 cell line was purchased to ECACC (European Collection of Cell cultures, Salisbury, SP4 0JG, UK). Cells were routinely grown in RPMI 1640 medium supplemented with 100 IU/ml penicillin G sodium, 100 µg/ml streptomycin sulfate, 0.25 µg/ml amphotericin B (Invitrogen, Paisley, UK) and 10% fetal calf serum. Cells were used at passages between 10–20. For treatment experiments, cells were plated and grown over night, the medium was then replaced with serum-free RPMI 1640 for 24 hours and then incubated with different doses of the compounds for the indicated times.
# Cell viability was determined by 3-(4,5-dimethylthiazol-2-yl)-2,5-diphenyltetrazolium bromide (MTT) (Sigma-Aldrich) method. In brief, a total of 5000 cells/well were seeded into 12-well plate in a final volume of 1 mL. After treatments, 20 µl MTT solution (5 mg/ml in PBS) was added to the medium and cells were incubated at 37 °C for 4 h. Then, the supernatant was discarded and isopropanol was added to dissolve the formazan crystals. Treatments were carried out in triplicate. The optical density in each well was evaluated by measurement of absorbance at 490 and 650 nm using a microplate reader (ELX 800 Bio-Tek Intruments, INC). IC50 values were calculated using GraphPad Prism vs 6.0 (GraphPad Software, Inc, La Jolla, CA, USA). Cell viability was also determined by counting viable and dead cells by Trypan blue staining. Trypan blue positive and negative cells were counted using a Countess^TM automated cell counter (Invitrogen, Carlsbad, CA, USA). Results were expressed in relation to total number of cells counted.
# HIF-1A = HIF-1A expression by Western blot in PC-3 and LNCaP cells; settings: 25 µM
# Protocol: To further confirm the compound 8c-induced activation of AMPK, PC-3 and LNCaP cells were incubated with the compound for 1 h and 24 hours in the presence of the AMPK inhibitor Dorsomorphin. […] Accordingly, ACC phosphorylation was increased at 1 h and 24 h and prevented by Dorsomorphin in both cell lines. AMPK inhibits mTORC1 through phosphorylation of Raptor on two well-conserved serine residues (ser722 and ser792) inducing cell-cycle arrest in response to an energy stress. To further support the 8c-induced AMPK activation, we determined Raptor phosphorylation on Ser792 in prostate cells.
# Figure 5 AMPK activation by compound 8c in prostate cancer cells. (A) PC-3 and LNCaP cells were treated with vehicle, 25 µM compound 8c, 25 µM compound 8c + 5 μM Dorsomorphin (8c + D) or 5 μM Dorsomorphin (D), for 1 hour or 24 hours and levels of the phosphorylated AMPK (pAMPK), phosphorylated ACC (pACC), phosphorylated Raptor (pRaptor) forms and HIF1α were determined by Western blot. Upper panel, representative Western blot of three different experiments. β-tubulin (β-Tub) serves as a loading control. […] (B) Cell viability monitored by MTT assay in PC-3 and LNCaP cells treated with vehicle, 25 µM and 50 μM compound 8c alone or in the presence of 5 μM Dorsomorphin or transfected with control siRNA (siC) or α1AMPK-selective siRNA (siAMPK). […]
compound,measurement,setting,value
"O=C1Nc2ccccc2C1(F)Cc1ccc(-c2ccccc2)o1 (stereo not shown) [Compound 8c, 3-fluoro-3-((5-phenylfuran-2-yl)methyl)indolin-2-one]",AMPK phosphorylation (pAMPK/AMPK),AMPK,notably activated AMPK
same,IC50,"PC-3 cells; Homo sapiens, PC-3, MTT, 24 hours",18 µM
same,inhibitory efficacy on cells viability at 50 μM,"PC-3 cells; PC-3, 50 μM",84%
same,expression of HIF-1A,HIF-1A,expression of HIF-1A was decreased
